Article PMC11527692, “Tailored biosynthesis of diosmin through reconstitution of the flavonoid pathway in Nicotiana benthamiana” (Frontiers in Plant Science, 2024)

What was measured:
Cs1,6RhaT = target: T1, Cs1,6RhaT (Citrus sinensis, UniProt A7ISD3); assay: substrate feeding of E. coli expressing the GST fusion, UPLC-DAD-QToF/MS of product; assay type: cell-based; conditions: product diosmin; 100 μM substrate, 28 °C, 3 h; whole culture
T1 sequence (A7ISD3 1-475): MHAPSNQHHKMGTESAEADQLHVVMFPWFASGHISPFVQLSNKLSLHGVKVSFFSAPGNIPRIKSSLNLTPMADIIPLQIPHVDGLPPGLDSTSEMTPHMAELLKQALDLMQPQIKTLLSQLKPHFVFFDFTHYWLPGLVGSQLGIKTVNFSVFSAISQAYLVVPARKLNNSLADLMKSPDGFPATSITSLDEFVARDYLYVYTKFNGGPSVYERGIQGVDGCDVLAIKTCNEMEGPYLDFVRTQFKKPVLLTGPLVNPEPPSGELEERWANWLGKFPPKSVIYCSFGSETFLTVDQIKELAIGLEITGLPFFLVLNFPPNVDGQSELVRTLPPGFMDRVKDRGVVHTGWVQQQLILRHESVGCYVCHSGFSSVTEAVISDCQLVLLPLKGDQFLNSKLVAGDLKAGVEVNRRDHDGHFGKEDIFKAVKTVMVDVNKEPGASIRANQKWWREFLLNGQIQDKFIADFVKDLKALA

PaF4′OMT = target: T2, PaF4′OMT (Plagiochasma appendiculatum, UniProt A0A1X9Y2Y6); assay: substrate feeding of E. coli expressing the GST fusion, HPLC of product; assay type: cell-based; conditions: product diosmetin; 100 μM substrate (methods name diosmetin, results name luteolin), 28 °C, 3 h; whole culture
T2 sequence (A0A1X9Y2Y6 1-391): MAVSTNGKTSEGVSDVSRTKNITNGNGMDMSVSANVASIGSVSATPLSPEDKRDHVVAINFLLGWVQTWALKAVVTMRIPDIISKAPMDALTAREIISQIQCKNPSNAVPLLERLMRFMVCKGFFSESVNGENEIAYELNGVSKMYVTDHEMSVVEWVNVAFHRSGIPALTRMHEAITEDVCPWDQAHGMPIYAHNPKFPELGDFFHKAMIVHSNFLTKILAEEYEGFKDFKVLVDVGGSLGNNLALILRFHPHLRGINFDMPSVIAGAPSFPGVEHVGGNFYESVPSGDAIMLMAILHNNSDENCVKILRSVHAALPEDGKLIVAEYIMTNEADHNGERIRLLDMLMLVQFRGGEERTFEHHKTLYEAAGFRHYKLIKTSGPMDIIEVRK

Compound | substrate feeding of E. coli expressing the GST fusion, UPLC-DAD-QToF/MS of prod (Cs1,6RhaT) | substrate feeding of E. coli expressing the GST fusion, HPLC of product (PaF4′OMT)
COc1ccc(-c2cc(=O)c3c(O)cc(O[C@@H]4O[C@H](CO)[C@@H](O)[C@H](O)[C@H]4O)cc3o2)cc1O [diosmetin 7-O-β-D-glucopyranoside] | the cells expressing Cs1,6RhaT produced the most diosmin | –
O=c1cc(-c2ccc(O)c(O)c2)oc2cc(O)cc(O)c12 [luteolin] | – | PaF4′OMT produced the most diosmetin from luteolin
